Measurements taken from ChEMBL document CHEMBL5634077, “Recent advances in 1,2,3- and 1,2,4-triazole hybrids as antimicrobials and their SAR: A critical review” (2023).
Converted amounts (≈) assume the structure as drawn. Each block holds one compound with its values, some of them ahead of it.

How the values were obtained:
Candida albicans [1] = assay: Antifungal activity against Candida albicans Y0109 assessed as reduction in fungal growth incubated for 24 hrs by NCCLS based assay; format: functional
Nakaseomyces glabratus = assay: Antifungal activity against Candida glabrata 537 assessed as reduction in fungal growth incubated for 72 hrs by NCCLS based assay; format: functional
Nannizzia gypsea = assay: Antifungal activity against Microsporum gypseum assessed as reduction in fungal growth incubated for 5 to 7 days by NCCLS based assay; format: functional; settings: time 5-7 day
Aspergillus fumigatus = assay: Antifungal activity against Aspergillus fumigatus 7544 assessed as reduction in fungal growth incubated for 5 to 7 days by NCCLS based assay; format: functional; settings: time 5-7 day
Candida albicans [2] = assay: Antifungal activity against Candida albicans SC5314 assessed as reduction in fungal growth incubated for 24 hrs by NCCLS based assay; format: functional
Trichophyton rubrum = assay: Antifungal activity against Trichophyton rubrum assessed as reduction in fungal growth incubated for 5 to 7 days by NCCLS based assay; format: functional; settings: time 5-7 day
Cryptococcus neoformans [3] = assay: Antifungal activity against Cryptococcus neoformans 32609 assessed as reduction in fungal growth incubated for 72 hrs by NCCLS based assay; format: functional
Staphylococcus aureus [4] = assay: Antibacterial activity against Staphylococcus aureus assessed as diameter of inhibition zone; format: functional
Micrococcus luteus = assay: Antibacterial activity against Micrococcus luteus IFC 12708 assessed as reduction in microbial growth; format: functional
Salmonella typhimurium = assay: Antibacterial activity against Salmonella typhimurium SL1344 assessed as reduction in microbial growth; format: functional, Salmonella enterica subsp. enterica serovar Typhimurium; settings: Salmonella enterica
Bacillus subtilis [5] = assay: Antibacterial activity against Bacillus subtilis ATCC 6633 assessed as reduction in microbial growth; format: functional
Staphylococcus aureus [6] = assay: Antibacterial activity against Staphylococcus aureus ATCC 6538p assessed as reduction in microbial growth; format: functional
Escherichia coli = assay: Antibacterial activity against Escherichia coli ATCC 25922 assessed as reduction in microbial growth; format: functional
Proteus vulgaris = assay: Antibacterial activity against Proteus vulgaris ATCC 3851 assessed as reduction in microbial growth; format: functional
Cryptococcus neoformans [7] = assay: Antifungal activity against Cryptococcus neoformans assessed as fungal growth inhibition by CLSI based method; format: functional
Candida albicans [8] = assay: Antifungal activity against Candida albicans assessed as fungal growth inhibition by CLSI based method; format: functional
Staphylococcus aureus [9] = assay: Antibacterial activity against methicillin resistant Staphylococcus aureus incubated for 20 hrs by broth microdilution method; format: functional
Candida albicans [10] = assay: Antifungal activity against Candida albicans ATCC 90028 assessed as growth inhibition incubated for 24 hrs; format: functional
Pseudomonas aeruginosa = assay: Antibacterial activity against Pseudomonas aeruginosa MTCC 1034 assessed as reduction in bacterial growth; format: functional
Bacillus subtilis [11] = assay: Antibacterial activity against Bacillus subtilis MTCC 441 assessed as reduction in bacterial growth; format: functional
Aspergillus niger = assay: Antifungal activity against Aspergillus niger assessed as fungal growth inhibition; format: functional
Candida albicans [12] = assay: Antifungal activity against Candida albicans assessed as inhibition of fungal growth; format: functional
Aspergillus flavus = assay: Antifungal activity against Aspergillus flavus assessed as inhibition of fungal growth; format: functional
Rhizopus = assay: Antifungal activity against Rhizopus assessed as inhibition of fungal growth; format: functional

MIC80 (Candida albicans [1]): 0.031 µg/mL (≈ 0.0704 µM)
MIC80 (Nakaseomyces glabratus): 0.25 µg/mL (≈ 0.568 µM)
MIC80 (Nannizzia gypsea): 2 µg/mL (≈ 4.54 µM)
MIC80 (Aspergillus fumigatus): 4 µg/mL (≈ 9.08 µM)
MIC80 (Candida albicans [2]): 0.125 µg/mL (≈ 0.284 µM)
MIC80 (Trichophyton rubrum): 4 µg/mL (≈ 9.08 µM)
MIC80 (Cryptococcus neoformans [3]): 1 µg/mL (≈ 2.27 µM)
Compound: Cc1ccccc1-c1cc(CO[C@H](C)[C@](O)(Cn2cncn2)c2ccc(F)cc2F)on1

Compound: CC(c1cn(-c2cnc(-c3ccccc3)c(-c3ccccc3)n2)nn1)N1C(=O)C(=O)c2ccccc21 (configuration not stated)
diameter of the inhibition zone (DIZ) (Staphylococcus aureus [4]): 6 mm

MIC (Micrococcus luteus): 1.56 µg/mL
MIC (Salmonella typhimurium): 1.56 µg/mL
MIC (Bacillus subtilis [5]): 1.56 µg/mL
MIC (Staphylococcus aureus [6]): 1.56 µg/mL
MIC (Escherichia coli): 1.56 µg/mL
MIC (Proteus vulgaris): 1.56 µg/mL
Compound: Cc1c(-c2nn(-c3ccccc3)cc2C2SCC(=O)N2c2ccc(F)cc2)nnn1-c1ccccc1 (configuration not stated)

MIC (Cryptococcus neoformans [7]): 0.5 µg/mL (≈ 1.6 µM)
MIC (Candida albicans [8]): 0.5 µg/mL (≈ 1.6 µM)
Compound: O=C(c1ccc(Cl)cc1)C(Cc1ccccc1)n1cncn1 (configuration not stated)

Compound: COc1cc(/C=C/c2ccc(OCc3cn(CCC(=O)O)nn3)cc2)cc(OC)c1
MIC (Staphylococcus aureus [9]): 625 µg/mL (≈ 1530 µM)

Compound: COCCOCCOCCOCCOC(=O)c1cc(C(=O)OCCOCCOCCOC)cc(-n2cc(CN3C(=O)C(=O)c4ccccc43)nn2)c1
diameter of the inhibition zone (DIZ) (Staphylococcus aureus [4]): 12 mm

Compound: COc1cc(/C=C/c2ccc(OCc3cn(-c4ccc(C(=O)O)cc4)nn3)cc2)cc(OC)c1
MIC (Staphylococcus aureus [9]): 1.2 µg/mL (≈ 2.62 µM)

Compound: CCCNC(=O)c1nnn(-c2ccc(Br)cc2)c1C
growth inhibition (GI) (Candida albicans [10]): 13.2%

MIC (Pseudomonas aeruginosa): 1.25 µg/mL (≈ 3.95 µM)
MIC (Bacillus subtilis [11]): 1.25 µg/mL (≈ 3.95 µM)
Compound: C=CCCC1CC(=O)N1Cc1cn(-c2cccc(Cl)c2)nn1 (configuration not stated)

MIC (Aspergillus niger): 27.1 µg/mL (≈ 59 µM)
Compound: CCCCCCCCCCCCCCCc1nnc(S)n1/N=C\c1ccc([N+](=O)[O-])cc1

Compound: CCOc1cccc(-n2cc(C(C)N3C(=O)C(=O)c4ccccc43)nn2)c1 (configuration not stated)
diameter of the inhibition zone (DIZ) (Staphylococcus aureus [4]): 10 mm

MIC (Cryptococcus neoformans [7]): 0.5 µg/mL (≈ 1.69 µM)
MIC (Candida albicans [8]): 0.5 µg/mL (≈ 1.69 µM)
Compound: O=C(c1ccc(F)cc1)C(Cc1ccccc1)n1cncn1 (configuration not stated)

MIC (Candida albicans [12]): 8 µg/mL (≈ 8.66 µM)
MIC (Aspergillus flavus): 8 µg/mL (≈ 8.66 µM)
MIC (Rhizopus): 16 µg/mL (≈ 17.3 µM)
Compound: C[C@@H]1[C@H](O)[C@@H](C)/C=C/C=C/C=C/C=C/C=C/C=C/C=C/[C@H](O[C@@H]2O[C@H](C)[C@@H](O)[C@H](N)[C@@H]2O)C[C@@H]2O[C@](O)(C[C@@H](O)C[C@@H](O)[C@H](O)CC[C@@H](O)C[C@@H](O)CC(=O)O[C@H]1C)C[C@H](O)[C@H]2C(=O)O [AMPHOTERICIN B]

MIC80 (Candida albicans [1]): 0.031 µg/mL (≈ 0.0698 µM)
MIC80 (Nakaseomyces glabratus): 0.125 µg/mL (≈ 0.281 µM)
MIC80 (Nannizzia gypsea): 0.5 µg/mL (≈ 1.13 µM)
MIC80 (Aspergillus fumigatus): 4 µg/mL (≈ 9 µM)
MIC80 (Candida albicans [2]): 0.031 µg/mL (≈ 0.0698 µM)
MIC80 (Trichophyton rubrum): 1 µg/mL (≈ 2.25 µM)
MIC80 (Cryptococcus neoformans [3]): 0.5 µg/mL (≈ 1.13 µM)
Compound: C[C@@H](OCc1cc(-c2ccc(F)cc2)no1)[C@](O)(Cn1cncn1)c1ccc(F)cc1F

MIC80 (Candida albicans [1]): 0.125 µg/mL (≈ 0.284 µM)
MIC80 (Nakaseomyces glabratus): 0.5 µg/mL (≈ 1.14 µM)
MIC80 (Nannizzia gypsea): 2 µg/mL (≈ 4.54 µM)
MIC80 (Aspergillus fumigatus): 8 µg/mL (≈ 18.2 µM)
MIC80 (Candida albicans [2]): 0.25 µg/mL (≈ 0.568 µM)
MIC80 (Trichophyton rubrum): 4 µg/mL (≈ 9.08 µM)
MIC80 (Cryptococcus neoformans [3]): 2 µg/mL (≈ 4.54 µM)
Compound: Cc1ccc(-c2cc(CO[C@H](C)[C@](O)(Cn3cncn3)c3ccc(F)cc3F)on2)cc1

MIC (Cryptococcus neoformans [7]): 0.5 µg/mL (≈ 1.29 µM)
MIC (Candida albicans [8]): 0.5 µg/mL (≈ 1.29 µM)
Compound: O=C(c1ccc(Cl)cc1)C(C(c1ccccc1)c1ccccc1)n1cncn1 (configuration not stated)

MIC (Pseudomonas aeruginosa): 1.25 µg/mL (≈ 3.82 µM)
MIC (Bacillus subtilis [11]): 1.25 µg/mL (≈ 3.82 µM)
Compound: C=CCCC1CC(=O)N1Cc1cn(-c2ccc([N+](=O)[O-])cc2)nn1 (configuration not stated)

Compound: COc1cc(/C=C/c2ccc(OCc3cn(CCCCCC(=O)O)nn3)cc2)cc(OC)c1
MIC (Staphylococcus aureus [9]): 78.1 µg/mL (≈ 173 µM)

Compound: COc1cc([N+](=O)[O-])c(OC)cc1-n1cc(C(C)N2C(=O)C(=O)c3ccccc32)nn1 (configuration not stated)
diameter of the inhibition zone (DIZ) (Staphylococcus aureus [4]): 9 mm

MIC (Pseudomonas aeruginosa): 1.25 µg/mL (≈ 3.95 µM)
MIC (Bacillus subtilis [11]): 1.25 µg/mL (≈ 3.95 µM)
Compound: C=CCCC1CC(=O)N1Cc1cn(-c2ccc(Cl)cc2)nn1 (configuration not stated)

Compound: COc1cc(/C=C/c2ccc(OCc3cn(Cc4ccc(C(=O)O)cc4)nn3)cc2)cc(OC)c1
MIC (Staphylococcus aureus [9]): 312 µg/mL (≈ 663 µM)
